# Measured values taken from patent publication US20230346796A1 (priority 2010, published 2023).
# Where “and” joins values, the source holds several entries; their conditions need not be identical. Equal entries are not always repeated. Where two headings read alike, the source gives them in different places.
# How the values were obtained:
# [1] = test system: healthy volunteers and patients undergoing a colonoscopy; assay: animal or person; type: in vivo, human; settings: for EC50: Homo sapiens, read-out: EC50, theta (RSE%)
# [2] = test system: patients undergoing a colonoscopy; settings: for Success rate n/N (%): Phase IIb (Study CNS7056-004); for Time to ready for discharge, Mean (SD): after last injection, first of three consecutive Aldrete scores of ≥ 9; for Time to ready for discharge, Mean (SD) / Time to fully alert, Mean (SD): ITT population; for Time to fully alert, Mean (SD): first of three consecutive MOAA/S scores of 5 after the last injection; for Time to Procedure Start, mean (SD): after initial dose
# [3] = human, in vivo
# [4] = Physiologically-based population pharmacokinetic analysis of CNS 7056 (Studies CNS 7056-001 and CNS 7056-002); settings: for V3: arterial; for clearance: human, plasma, intravenous
# [5] = human, in vivo; remark: listed apart in the source
# procedural sedation [6] = settings: Phase III, cited from earlier work
# procedural sedation [7] = settings: Phase II, cited from earlier work
# [8] = highest dose regimen (8.0/3.0 mg)
# [9] = lowest dose regimen (5.0/3.0 mg)
# [10] = middle dose regimen (7.0/2.0 mg)
# [11] = Run 142S, Lung/Central, 3 compartments
# [12] = Run 144S, Lung/Liver, 4 compartments
smiles,measurement,setting,value
"COC(=O)CC[C@@H]1N=C(c2ccccn2)c2cc(Br)ccc2-n2c(C)cnc21 [CNS 7056, 3-[(4S)-8-bromo-1-methyl-6-(2-pyridinyl)-4H-imidazo[1,2-a][1,4]benzodiazepin-4-yl] propionic methyl ester]",EC50,[1]; 1 min,0.332 µg/mL
same,EC50,[1]; 2 min,0.325 µg/mL
same,EC50,[1],0.369 µg/mL
same,EMAX,[1]; in vivo,5.0
same,"EMAX, fitted theta (RSE%)",[1]; in vivo,4.88 (1.20) and 4.85 (0.87)
same,"EMIN (first line so headed), eta IIV (RSE%)",[1]; in vivo,29.73 (15.2) and 28.87 (11.7)
same,"EMIN (second line so headed), eta IIV (RSE%)",[1]; in vivo,94.18 (38.7)
same,"Hill Coefficient (γ), theta (RSE%)",[1]; in vivo,3.16 (8.82) and 4.64 (8.81) and 3.92 (6.76) and 3.9 (7.10) and 3.93 (6.81)
same,"Hill Coefficient, eta IIV (RSE%)",[1]; in vivo,54.72 (24.0) % and 57.77 (24.8) % and 50.35 (22.3) % and 51.71 (22.7) % and 48.59 (21.4) % and 59.37 (25.3) %
same,Hill coefficient,[1]; in vivo,4.03 and 6.627
same,"Hill coefficient, eta IIV (RSE%)",[1]; in vivo,53.17 (23.0) and 69.49 (30.2)
same,"Hill coefficient, theta (RSE%)",[1]; in vivo,4.20 (7.47) and 4.62 (8.41)
same,"IIV for all three pharmacodynamic parameters (EC50, ke0, Hill coefficient)",[1]; in vivo,approximately 40%
same,increase in EC50 caused by scoping-factor,[1]; in vivo,10-12%
same,increase in EC50 during one- and two-minute spikes of increased MOAA/S score,[1]; in vivo,approximately 30%
same,ke0,[1]; in vivo,13.3 h⁻¹ and 12.17 h⁻¹
same,typical Hill coefficient,[1]; in vivo,4.03
same,Success rate n/N (%) (ITT),"[2]; 7.0 mg initial / 2.0 mg top-ups (middle dose regimen), 40 patients","38/40 (95.0%), p = 0.025"
same,Success rate n/N (%),[2]; 5.0/3.0 mg,39/40 (97.5%)
same,"Time to ready for discharge, Mean (SD)",[2]; 5.0/3.0 mg,13.5 (4.83) mins
same,"Time to fully alert, Mean (SD)",[2]; 5.0/3.0 mg,13.3 (7.21) mins
same,"Time to Procedure Start, mean (SD)",[2]; 5.0/3.0,2.65 (1.42) minutes
same,Success rate n/N (%),[2]; 7.0/2.0 mg,38/40 (95.0%)
same,"Time to Procedure Start, mean (SD)",[2]; 7.0/2.0 mg,3.03 (2.17) minutes
same,"Time to ready for discharge, Mean (SD)",[2]; 7.0/2.0 mg,14.0 (6.28) mins
same,"Time to fully alert, Mean (SD)",[2]; 7.0/2.0 mg,11.3 (5.69) mins
same,Success rate n/N (%),[2]; 8.0/3.0 mg,37/40 (92.5%)
same,"Time to Procedure Start, mean (SD)",[2]; 8.0/3.0 mg,2.23 (1.44) minutes
same,"Time to ready for discharge, Mean (SD)",[2]; 8.0/3.0 mg,16.8 (7.54) mins
same,"Time to fully alert, Mean (SD)",[2]; 8.0/3.0 mg,13.6 (7.48) mins
same,recovery to fully alert,[2]; [8],13.6 min
same,time to discharge,[2]; [8],16.8 min
same,related AESIs (adverse events of special interest),"[2]; human, in vivo",10
same,Success rate n/N (%) (ITT),[2]; in vivo,95%
same,patients requiring manual or mechanical ventilation,[2]; in vivo,no patient required manual or mechanical ventilation
same,time to fully alert compared to Midazolam,[2]; in vivo,shorter
same,recovery to fully alert,[2]; [9],13.3 min
same,time to discharge,[2]; [9],13.5 min
same,recovery to fully alert,[2]; [10],11.3 min
same,time to discharge,[2]; [10],14 min
same,V4,[3],21.59 I
same,"Blood/Plasma Cardiac Flow, theta (RSE%)","[4]; Run 128S, Lung, 3 compartments",173 (3.37) l/h
same,"Central Volume, eta IIV (RSE%)","[4]; Run 128S, Lung, 3 compartments",146.9 (52.9) %
same,"Central Volume, theta (RSE%)","[4]; Run 128S, Lung, 3 compartments",1.71 (15.2) I
same,"Deep Volume(5), theta (RSE%)","[4]; Run 128S, Lung, 3 compartments",23.4 (4.57) I
same,"Deep Volume, eta IIV (RSE%)","[4]; Run 128S, Lung, 3 compartments",22.55 (9.94) %
same,"Inter-Tissue Clearance(4), theta (RSE%)","[4]; Run 128S, Lung, 3 compartments",74.6 (3.29) I/h
same,"Inter-Tissue Clearance(5), theta (RSE%)","[4]; Run 128S, Lung, 3 compartments",25.7 (6.18) I/h
same,"Peripheral Volume(4), theta (RSE%)","[4]; Run 128S, Lung, 3 compartments",13.5 (9.18) I
same,"Peripheral Volume, eta IIV (RSE%)","[4]; Run 128S, Lung, 3 compartments",50.10 (18.0) %
same,"Pulmonary Clearance, eta IIV (RSE%)","[4]; Run 128S, Lung, 3 compartments",14.35 (6.07) %
same,"Pulmonary Clearance, theta (RSE%)","[4]; Run 128S, Lung, 3 compartments",49.1 (2.02) I/h
same,"Blood/Plasma Cardiac Flow, theta (RSE%)","[4]; Run 135S, Lung, 4 compartments",174 (3.59) l/h
same,"Central Volume, eta IIV (RSE%)","[4]; Run 135S, Lung, 4 compartments",190.2 (66.8) %
same,"Central Volume, theta (RSE%)","[4]; Run 135S, Lung, 4 compartments",1.24 (19.3) I
same,"Deep Volume(5), theta (RSE%)","[4]; Run 135S, Lung, 4 compartments",23.8 (4.78) I
same,"Deep Volume, eta IIV (RSE%)","[4]; Run 135S, Lung, 4 compartments",23.44 (10.3) %
same,"Deeper Volume(6), theta (RSE%)","[4]; Run 135S, Lung, 4 compartments",12 (20.4) I
same,"Inter-Tissue Clearance(4), theta (RSE%)","[4]; Run 135S, Lung, 4 compartments",68.5 (5.45) I/h
same,"Inter-Tissue Clearance(5), theta (RSE%)","[4]; Run 135S, Lung, 4 compartments",42 (5.57) I/h
same,"Inter-Tissue Clearance(6), theta (RSE%)","[4]; Run 135S, Lung, 4 compartments",3.12 (13.2) I/h
same,"Peripheral Volume(4), theta (RSE%)","[4]; Run 135S, Lung, 4 compartments",8.14 (12.8) I
same,"Peripheral Volume, eta IIV (RSE%)","[4]; Run 135S, Lung, 4 compartments",71.40 (25.4) %
same,"Pulmonary Clearance, eta IIV (RSE%)","[4]; Run 135S, Lung, 4 compartments",14.42 (6.13) %
same,"Pulmonary Clearance, theta (RSE%)","[4]; Run 135S, Lung, 4 compartments",48.7 (2.00) I/h
same,"Blood/Plasma Cardiac Flow, theta (RSE%)",[4]; [11],177 (3.54) l/h
same,"Central Volume, eta IIV (RSE%)",[4]; [11],143.6 (52.2) %
same,"Central Volume, theta (RSE%)",[4]; [11],1.93 (15.8) I
same,"Deep Volume(5), theta (RSE%)",[4]; [11],23.1 (4.58) I
same,"Deep Volume, eta IIV (RSE%)",[4]; [11],22.59 (10.0) %
same,"Extra-pulmonary Clearance, theta (RSE%)",[4]; [11],8.53 (52.4) I/h
same,"Inter-Tissue Clearance(4), theta (RSE%)",[4]; [11],72.4 (3.61) I/h
same,"Inter-Tissue Clearance(5), theta (RSE%)",[4]; [11],25.3 (6.16) I/h
same,"Peripheral Volume(4), theta (RSE%)",[4]; [11],13.4 (9.32) I
same,"Peripheral Volume, eta IIV (RSE%)",[4]; [11],50.48 (18.2) %
same,"Pulmonary Clearance, eta IIV (RSE%)",[4]; [11],17.12 (8.97) %
same,"Pulmonary Clearance, theta (RSE%)",[4]; [11],44.5 (6.11) I/h
same,"Blood/Plasma Cardiac Flow, theta (RSE%)",[4]; [12],175 (2.68) l/h
same,"Central Volume, eta IIV (RSE%)",[4]; [12],368.5 (105.) %
same,"Central Volume, theta (RSE%)",[4]; [12],0.834 (15.8) I
same,"Deep Volume(5), theta (RSE%)",[4]; [12],22.7 (5.28) I
same,"Deep Volume, eta IIV (RSE%)",[4]; [12],24.10 (10.9) %
same,"Deeper Volume(6), theta (RSE%)",[4]; [12],10.9 (16.7) I
same,"Extra-pulmonary Clearance, theta (RSE%)",[4]; [12],6.15 (49.7) I/h
same,"Inter-Tissue Clearance(4), theta (RSE%)",[4]; [12],46.2 (7.27) I/h
same,"Inter-Tissue Clearance(5), theta (RSE%)",[4]; [12],40 (5.12) I/h
same,"Inter-Tissue Clearance(6), theta (RSE%)",[4]; [12],3.07 (15.1) I/h
same,"Peripheral Volume(4), theta (RSE%)",[4]; [12],6.47 (13.5) I
same,"Peripheral Volume, eta IIV (RSE%)",[4]; [12],90.06 (30.2) %
same,"Pulmonary Clearance, eta IIV (RSE%)",[4]; [12],16.22 (7.32) %
same,"Pulmonary Clearance, theta (RSE%)",[4]; [12],45.0 (4.24) I/h
same,V3,"[4]; 0.65 x weight/70, Geom. Mean (Typical Value)",0.717 I
same,V3,"[4]; 0.65 x weight/70, Subject 1210",0.786 I
same,V3,"[4]; 0.65 × weight/70, Geom. Mean (Typical Value)",0.717 L
same,V3,"[4]; 0.65 × weight/70, Subject 1210",0.786 L
same,clearance,"[4]; both, Clearance, Geom. Mean (Typical Value)",819 mL/min
same,clearance,"[4]; both, systemic clearance",~1000 mL/min
same,clearance,"[4]; Clearance, Subject 1210",732 mL/min
same,contribution of the liver to clearance,[4]; modelling,~10%
same,"pulmonary extraction ratio, and first-pass metabolism",[4]; modelling,approximately 28%
same,V4,"[4]; peripheral, Subject 1210",21.59 L
same,systemic exposure,[4]; typical single dose 7 mg,approximately 0.12 mcg.h/ml
same,Body weight as predictor of systemic clearance,[5],not a statistically significant predictor
CC(C)c1cccc(C(C)C)c1OCOP(=O)(O)O [Fospropofol],Success rate n/N (%),procedural sedation [6]; 6.5 mg/kg (labelled dose),137/158 (86.7%)
same,Success rate n/N (%),procedural sedation [7]; (labelled dose),18/26 (69.2%)
"Cc1ncc2n1-c1ccc(Cl)cc1C(c1ccccc1F)=NC2 [Midazolam, reference compound]",Success rate n/N (%),procedural sedation [6]; 0.02 mg/kg,36/52 (69.2%)
same,patients who did not respond to treatment and received Propofol as rescue medication,[2]; 2.5/1.0 mg,25%
same,Success rate n/N (%),[2]; 2.5/1.0 mg,30/40 (75.0%)
same,"Time to Procedure Start, mean (SD)",[2]; 2.5/1.0 mg,4.80 (3.19) minutes
same,"Time to ready for discharge, Mean (SD)",[2]; 2.5/1.0 mg,17.1 (7.33) mins
same,"Time to fully alert, Mean (SD)",[2]; 2.5/1.0 mg,15.2 (7.43) mins
same,Success rate n/N (%),procedural sedation [7]; 0.02 mg/kg,21/26 (80.8%)
